Measured values as given in article PMC11915030 (ACS Pharmacology & Translational Science, 2025).
Where two headings read alike, the source gives them in different places.

Assays:
[1] = tested on: nonactivated THP-1 cells; assay: Inflammatory cytokine assay, nonactivated THP-1 cells (ELISA); details: 24 h
[2] = tested on: LPS-activated THP-1 cells; assay: Inflammatory cytokine assay, LPS-activated THP-1 cells (ELISA); details: LPS 0.1 μg/mL, 24 h, three concentrations
Method: This assay evaluated the impact of various compounds on cytokine production in THP1 cells stimulated with LPS, as previously described with some modifications.[35] Following treatment, key cytokines were measured to enhance our understanding of the modulatory effects of these compounds on inflammation.
The cells were cultured for 24 h at 37 °C and 5% CO2. After the culture period, the cell free supernatants were harvested and stored at −80 °C until cytokine measurement.
The cytokines IL-1beta, IL-6 and TNF were measured using an ELISA Development Kit (R&D, biotechne, Wiesbaden, Germany) according to the recommendations of the manufacturer.

[3] = biological target: T1, MOR (Homo sapiens, UniProt P35372); assay: cell-based; details: for Emax: read-out: Emax for G-protein activation
T1 sequence (P35372 whole entry, the tested form may be a part): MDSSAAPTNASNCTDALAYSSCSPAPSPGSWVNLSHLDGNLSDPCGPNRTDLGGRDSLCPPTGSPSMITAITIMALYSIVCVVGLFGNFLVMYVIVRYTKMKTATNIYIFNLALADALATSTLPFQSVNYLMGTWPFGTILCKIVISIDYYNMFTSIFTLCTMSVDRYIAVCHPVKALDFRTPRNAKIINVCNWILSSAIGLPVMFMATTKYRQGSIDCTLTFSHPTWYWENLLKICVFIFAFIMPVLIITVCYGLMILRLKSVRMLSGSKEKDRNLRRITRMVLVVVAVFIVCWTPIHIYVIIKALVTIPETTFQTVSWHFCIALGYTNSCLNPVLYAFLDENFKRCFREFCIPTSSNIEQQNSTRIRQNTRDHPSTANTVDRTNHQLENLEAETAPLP
Method: The G-protein pathway activation was performed as previously described.[40] Briefly, the G-protein pathway activation was measured using HitHunter cAMP assays, which quantify cAMP, a secondary messenger involved in G-protein-coupled receptor (GPCR) signaling. This assay employed Enzyme Fragment Complementation (EFC) technology with β-galactosidase (β-Gal) as the reporter enzyme. Upon activation, β-Gal produces a chemiluminescent signal that is detected using a microplate reader, providing a quantitative measure of G-protein pathway activity.

[4] = biological target: T2, MOR expressed in human embryonic kidney 293 (HEK-293) cells (Homo sapiens, UniProt P35372); assay: In vitro radioligand competition binding assay against [3H]DAMGO (Eurofins)
T2 construct: host or cells: HEK-293
T2 sequence (P35372 whole entry): as the sequence (P35372 whole entry, the tested form may be a part) above
Method: The Ki values were determined from the measured IC50 values using the Cheng-Prusoff equation,[39] Ki = IC50/[1 + ([L]/Kd)], where [L] and Kd are the concentration and binding affinity of the radiolabeled ligand in the assay, respectively.

[5] = biological target: T1, MOR; assay: cell-based; details: for Emax: read-out: Emax for β-arrestin recruitment
Method: The β-Arrestin recruitment assay was performed as previously described.[41] Briefly, the PathHunter β-Arrestin assay was used to monitor GPCR activation through β-arrestin recruitment. This assay also utilized EFC technology, with β-Gal as the reporter enzyme. In this system, the Enzyme Acceptor (EA) fragment was fused to β-arrestin, and the ProLink (PK) fragment was fused to the GPCR of interest. Upon GPCR activation, EA and PK complementation restored β-Gal activity, generating a chemiluminescent signal that was measured using PathHunter Detection Reagents.

[6] = design: method as in doi:10.3390/scipharm88020025, PMID 17435173, PMID 24712707; details: water or methanol, cited from earlier work
[7] = compared with the reported EC50 of morphine

| SMILES | induction of pro-inflammatory cytokines (TNF, IL-1beta, IL-6) [1] | effect on LPS-induced TNF release [2] | fold difference to morphine, G-protein activation [3, 7] [fold] | Emax [3] [%] | fold less potent against MOR than morphine (Ki) ([4]; compared with the reported Ki of morphine) | IC50 ([4]; read-out: half-maximal inhibitory concentration (IC50), MOR binding) [nM] | Ki ([4]; read-out: inhibitory constant (Ki), MOR binding) [nM] | fold difference to morphine, β-arrestin recruitment [5, 7] [fold] | Emax [5] [%] | hydrolysis to 4-methylaminoantipyrine (4-MAA) ([6]; acidic conditions) | hydrolysis to 4-methylaminoantipyrine (4-MAA) ([6]; neutral pH) |
| --- | --- | --- | --- | --- | --- | --- | --- | --- | --- | --- | --- |
| CN1CC[C@]23c4c5ccc(O)c4O[C@H]2[C@@H](O)C=C[C@H]3[C@H]1C5 [morphine] | did not see any induction | no significant effect |  |  |  |  |  |  |  |  |  |
| Cc1c(N(C)Cc2cc3c4c(c2O)O[C@H]2[C@@H](O)C=C[C@H]5[C@@H](C3)N(C)CC[C@@]452)c(=O)n(-c2ccccc2)n1C [metamorphine] | did not see any induction | no significant effect | 22 | 97 | about 8 fold | 7.3 | 3 | 8 | 70 |  |  |
| Cc1c(N(C)CS(=O)(=O)O)c(=O)n(-c2ccccc2)n1C [metamizole, metamizole sodium] | did not see any induction | dose-dependent and significant upregulation |  |  |  |  |  |  |  | more rapidly | slowly |
| COc1ccsc1CNCC[C@@]1(c2ccccn2)CCOC2(CCCC2)C1 [TRV-130, oliceridine, reference compound] |  |  |  | 100 |  |  |  |  | 7.9 |  |  |
